Experimental data taken from PubChem BioAssay (NCI).
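All cell lines were grown in 96-well plates and treated with compound for 48 hours. GI50 = concentration required for 50% inhibition of growth. TGI denotes the concentration required for complete inhibition of growth.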

Legend:
Experiment in all cases: NCI anticancer screen, dose series, 48 h
[1] = system: A498 renal
[2] = system: COLO 205 colon
[3] = system: HCC-2998 colon
[4] = system: HOP-62 NSCLC
[5] = system: KM12 colon
[6] = system: LOX IMVI melanoma
[7] = system: NCI-H460 lung
[8] = system: SF-268 CNS
[9] = system: SK-MEL-2 melanoma
[10] = system: T-47D breast

Compound	GI50 [1] [µM]	TGI [1] [µM]	GI50 [2] [µM]	TGI [2] [µM]	GI50 [3] [µM]	TGI [3] [µM]	GI50 [4] [µM]	TGI [4] [µM]	GI50 [5] [µM]	TGI [5] [µM]	GI50 [6] [µM]	TGI [6] [µM]	GI50 [7] [µM]	TGI [7] [µM]	GI50 [8] [µM]	TGI [8] [µM]	GI50 [9] [µM]	TGI [9] [µM]	GI50 [10] [µM]	TGI [10] [µM]
O=C(C(Br)Br)C(Br)C(Br)c1ccccc1 (stereo not given)	19.7	35	1.65	3.59	16.2	33	2.74	8.1	14.2	28.5	1.49	3.61	24.5	66.4	4.04	16.9	13.7	35.7	2.75	9.69
Cc1[nH]c(/C=C2\C(=O)Nc3ccc(F)cc32)c(C)c1C(=O)NC[C@H](O)CN1CCOCC1	3.29	> 10	3.41	> 10	5.17	> 10	4.41	> 10	0.0691	> 10	2.33	> 10	2.39	> 10	4.83	> 10	2.16	8.68	> 10	> 10
COc1nc(C)cc2c(=O)n(-c3ccccc3)n(CCCN3CCN(c4ccc(Cl)cc4)CC3)c(=O)c12	> 50	> 50	> 50	> 50	> 50	> 50	24.5	> 50	> 50	> 50	> 50	> 50	24.6	> 50	37.7	> 50	> 50	> 50	> 50	> 50
C[N+](C)(CCCCCC[N+](C)(C)CCCN1C(=O)c2cc3ccccc3cc2C1=O)CCCN1C(=O)c2ccccc2C1=O	> 37.5	> 37.5	> 37.5	> 37.5	> 37.5	> 37.5	> 37.5	> 37.5	> 37.5	> 37.5	> 37.5	> 37.5	> 37.5	> 37.5	> 37.5	> 37.5	> 37.5	> 37.5	> 37.5	> 37.5
COC(=O)/C(=C\c1c(C)[nH]c2ccccc12)S(=O)(=O)c1ccccc1	5.45	20.9	7.45	22.1	4.89	17.4	7.69	29.4	2.37	6.31	1.99	5.18	2.99	9.61	3.33	11.1	10.6	25.5	3.21	16.6
OCCCCC#Cc1ccccc1C#Cc1ccccc1C(F)(F)F	5.79	19.8	17.7	33.9	3.64	13.9	8.46	> 100	3.57	16.7	4.99	18.5	17.9	34.7	17.4	33.7	15.6	32.6	19.8	47.2
O=C1OC(=O)C2C1C1(c3ccccc3)C(c3ccccc3)=C(c3ccccc3)C2(c2ccccc2)S1=O (stereo not given)	> 100	> 100	> 100	> 100	> 100	> 100	> 100	> 100	> 100	> 100	> 100	> 100	> 100	> 100	> 100	> 100	> 100	> 100	> 100	> 100
Cc1ccc2c(N)c(C(=O)N[C@H]3CCc4cc(N5CC6CCC(C5)N6)ccc4C3)sc2n1	0.775	2.65	0.383	1.49	0.342	2.08	0.291	2.36	0.693	3.33	0.0761	0.405	0.152	1.43	0.42	2.51	0.44	1.29	0.497	3.55
Cc1cc2c(F)c(Oc3ncnn4cc(OC[C@@H](C)OC(=O)[C@H](C)N)c(C)c34)ccc2[nH]1	4.55	17.3	10.7	25.1	13.5	27.6	10.3	26.9	7.68	20.5	3.75	18.1	2.1	13.8	8	23.5	19.9	35.3	13.4	31.7
COc1c(O)ccc2c1CN1CCc3cc4c(cc3C1C2)OCO4 (stereo not given)	–	> 78.9	–	> 100	–	> 100	–	> 100	–	> 100	–	> 77.8	–	> 74.7	–	> 100	–	> 92.9	–	> 73.9
CC(NNC(=S)N1CCCCCC1)c1ccc2ccccc2n1 (stereo not given)	4.61	22.1	0.284	19	3.35	22.6	3.93	> 100	2.57	41.4	2.56	15.5	1.05	> 78.9	1.72	43.7	13.8	41.5	1.91	28.7
CC1=Cc2cc3[n-]c(cc4nc(cc5[n-]c(cc1n2)cc5C)C(C)=C4CCC(=O)O)c(CCC(=O)O)c3C.[Pd+2]	12.6	29.8	16.8	41.6	10.2	28.8	17.7	34.3	27	53.3	15.7	39.6	33.5	59.2	20.6	47.7	18.7	44	> 100	> 100
